# According to patent publication US8497267B2, “Method for treating a sleep disorder with a dosage form of besylate salts of zopiclone or eszopiclone” (Sunovion Pharmaceuticals Inc., priority 2007, dated 2013):
# Columns and labels:
# [1] = Aqueous solubility (24 hour equilibrated suspension in water, HPLC); assay type: physicochemical; conditions: for pH measured at saturation: saturated aqueous solution
# Experimental: The aliquot was diluted and analyzed by HPLC (Waters). The data was compared to a standard curve generated from a set of solutions of known concentrations. The standard curve and the samples were analyzed using a HPLC using the following conditions: • Column: Symmetry C-18, 5 um, 15 cm×3.9 mm (Waters) • Mobile Phase: 0.05 M KH2PO4—0.01M Hexanesulfonic Acid/THF (1000:125) (Apparent pH 5.0) • Column Temp: 20-30° C. • Flow Rate: 1.0 mL/min • Wavelength: 305 nm • Run Time: 15 min (zopiclone retention time is 9.5-10 min)
# [2] = Intrinsic dissolution, USP 28 method <1087>; assay type: physicochemical; conditions: isotonic 50 mM acetate (pH 4.5) buffer at 37° C., 50 rpm; for Intrinsic dissolution Average: average of Run 1 and Run 2
# Experimental: The intrinsic dissolution (Table 3) was determined using USP 28 method <1087> (United States Pharmacopeia, The National Formulary, USP 28, 28th edition, Rockville, […]., 2005). Preparation of each test sample was performed as per USP 28 method <1087> by weighing and transferring the material to the die cavity and compressing for 1 minute at the minimum compression pressure necessary to form a nondisintegrating compacted pellet. The dissolution media used was isotonic 50 mM acetate buffer (pH 4.5) at 37° C. and speed was set at 50 rpm. Each run was halted at 5 min, irrespective of the percent dissolved. Each salt was run in duplicate.
# [3] = water, equilibrated 24 hour at ambient
SMILES,pH measured at saturation [1],"solubility thermodynamic at 24 h [1, 3] [mg/mL]",Intrinsic dissolution Run 1 [2] [mgA/cm^2/min],Intrinsic dissolution Run 2 [2] [mgA/cm^2/min],Intrinsic dissolution Average [2] [mgA/cm^2/min],"Solubility [1, 3]"
"CN1CCN(C(=O)O[C@H]2c3nccnc3C(=O)N2c2ccc(Cl)cn2)CC1.O=S(=O)(O)c1ccccc1 [Besylate, (S)-Zopiclone Besylate]",4.4,34,3.3,2.6,2.9,–
"CN1CCN(C(=O)O[C@H]2c3nccnc3C(=O)N2c2ccc(Cl)cn2)CC1 [Free base, (S)-(6-(5-chloro-2-pyridyl)-5-[(4-methyl-1-piperazinyl)carbonyloxy]-7-oxo-6,7-dihydro-5H-pyrrolo[3,4-b]pyrazine)]",7.6,–,0.6,0.5,0.5,0.2^1 mgA/mL
